How the values were obtained:
[1] = molecular target: T1, Alpha-1B adrenergic receptor (Rattus norvegicus, UniProt P15823); experiment: DRUGMATRIX: Alpha-1B adrenergic receptor radioligand binding (ligand: prazosin); assay type: cell membranes, Wistar, Liver, Membrane; conditions: Not Active = under 50% inhibition at 10 µM
T1 sequence (P15823 whole entry): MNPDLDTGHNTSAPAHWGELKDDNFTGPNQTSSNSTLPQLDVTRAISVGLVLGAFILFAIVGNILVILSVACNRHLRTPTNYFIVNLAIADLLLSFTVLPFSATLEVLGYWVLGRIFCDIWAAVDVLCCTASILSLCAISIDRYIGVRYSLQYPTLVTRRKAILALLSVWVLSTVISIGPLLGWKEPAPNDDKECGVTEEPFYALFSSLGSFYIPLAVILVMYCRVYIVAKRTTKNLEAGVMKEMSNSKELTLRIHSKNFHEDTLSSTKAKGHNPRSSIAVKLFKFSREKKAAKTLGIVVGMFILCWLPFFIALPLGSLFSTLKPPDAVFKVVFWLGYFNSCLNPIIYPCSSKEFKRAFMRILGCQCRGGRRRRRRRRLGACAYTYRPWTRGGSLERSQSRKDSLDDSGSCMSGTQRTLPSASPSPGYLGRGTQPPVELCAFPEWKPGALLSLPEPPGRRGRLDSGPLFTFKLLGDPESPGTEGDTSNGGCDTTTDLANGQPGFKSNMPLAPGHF

[2] = molecular target: T2, Alpha-1D adrenergic receptor (Homo sapiens, UniProt P25100); assay type: cell membranes, HEK293, Membrane; further: in other assays of this panel Not Active means under 50% inhibition at 10 µM
T2 sequence (P25100 whole entry): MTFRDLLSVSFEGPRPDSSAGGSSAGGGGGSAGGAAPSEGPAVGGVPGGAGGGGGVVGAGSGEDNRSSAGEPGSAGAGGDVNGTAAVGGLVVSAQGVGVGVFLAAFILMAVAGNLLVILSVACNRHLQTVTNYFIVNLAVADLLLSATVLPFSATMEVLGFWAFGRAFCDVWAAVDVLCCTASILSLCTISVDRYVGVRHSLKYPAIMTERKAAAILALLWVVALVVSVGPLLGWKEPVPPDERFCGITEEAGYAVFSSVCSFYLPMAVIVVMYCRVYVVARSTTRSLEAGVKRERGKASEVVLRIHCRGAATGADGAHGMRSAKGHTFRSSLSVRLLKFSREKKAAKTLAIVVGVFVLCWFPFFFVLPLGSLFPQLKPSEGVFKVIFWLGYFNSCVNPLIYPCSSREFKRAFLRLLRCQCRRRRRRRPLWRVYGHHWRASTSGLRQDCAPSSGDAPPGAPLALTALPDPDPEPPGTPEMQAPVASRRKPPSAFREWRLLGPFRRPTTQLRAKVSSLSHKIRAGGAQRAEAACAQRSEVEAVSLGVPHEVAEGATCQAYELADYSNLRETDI

[3] = molecular target: Mu-type opioid receptor (Homo sapiens, UniProt P35372); experiment: DRUGMATRIX: Opiate mu (OP3, MOP) radioligand binding (ligand: [3H] Diprenorphine); assay type: cell membranes, CHO-K1, Membrane; conditions: Not Active = under 50% inhibition at 10 µM
Chain of Mu-type opioid receptor (P35372 whole entry): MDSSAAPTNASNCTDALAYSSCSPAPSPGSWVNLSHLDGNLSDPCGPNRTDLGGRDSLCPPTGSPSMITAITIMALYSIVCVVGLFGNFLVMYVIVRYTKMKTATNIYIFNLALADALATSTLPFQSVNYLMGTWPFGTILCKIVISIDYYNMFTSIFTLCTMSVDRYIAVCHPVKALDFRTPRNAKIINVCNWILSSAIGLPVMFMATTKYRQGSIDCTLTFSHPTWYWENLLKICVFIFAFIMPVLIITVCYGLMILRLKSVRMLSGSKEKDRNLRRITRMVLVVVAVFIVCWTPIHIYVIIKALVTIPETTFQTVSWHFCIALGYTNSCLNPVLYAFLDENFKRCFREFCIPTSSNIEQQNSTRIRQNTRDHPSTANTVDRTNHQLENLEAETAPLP

[4] = molecular target: Mitogen-activated protein kinase 1 (Homo sapiens, UniProt P28482); experiment: DRUGMATRIX: Protein Serine/Threonine Kinase, ERK2 enzyme inhibition (substrate: Myelin Basic Protein); parameters: species or system Escherichia coli; conditions: Not Active = under 50% inhibition at 10 µM
Chain of Mitogen-activated protein kinase 1 (P28482 whole entry): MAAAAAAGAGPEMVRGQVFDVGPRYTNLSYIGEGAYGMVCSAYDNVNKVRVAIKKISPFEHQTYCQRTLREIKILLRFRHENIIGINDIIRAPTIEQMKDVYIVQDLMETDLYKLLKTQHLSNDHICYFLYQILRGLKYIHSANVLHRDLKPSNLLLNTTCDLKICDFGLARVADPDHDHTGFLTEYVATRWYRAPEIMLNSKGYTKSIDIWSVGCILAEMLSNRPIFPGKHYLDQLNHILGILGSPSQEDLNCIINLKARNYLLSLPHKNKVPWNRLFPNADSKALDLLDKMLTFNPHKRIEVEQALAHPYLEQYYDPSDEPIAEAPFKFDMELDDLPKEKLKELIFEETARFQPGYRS

[5] = molecular target: Cytochrome P450 2C19 (Homo sapiens, UniProt P33261); conditions: bti-tn-5b1-4; further: in other assays of this panel Not Active means under 50% inhibition at 10 µM
Chain of Cytochrome P450 2C19 (P33261 whole entry): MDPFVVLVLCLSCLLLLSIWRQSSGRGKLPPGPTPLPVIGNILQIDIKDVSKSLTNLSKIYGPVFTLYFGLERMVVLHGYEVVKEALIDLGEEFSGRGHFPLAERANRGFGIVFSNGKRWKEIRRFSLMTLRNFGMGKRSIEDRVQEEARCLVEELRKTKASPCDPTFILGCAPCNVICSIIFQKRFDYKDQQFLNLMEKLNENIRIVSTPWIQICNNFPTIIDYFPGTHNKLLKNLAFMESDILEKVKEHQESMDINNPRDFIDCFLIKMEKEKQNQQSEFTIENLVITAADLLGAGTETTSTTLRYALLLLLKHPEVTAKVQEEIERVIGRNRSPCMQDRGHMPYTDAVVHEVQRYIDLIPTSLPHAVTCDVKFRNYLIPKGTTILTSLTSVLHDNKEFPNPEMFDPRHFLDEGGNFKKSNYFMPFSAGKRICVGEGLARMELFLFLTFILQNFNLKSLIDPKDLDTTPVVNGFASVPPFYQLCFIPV

[6] = molecular target: Cytochrome P450 2E1 (Homo sapiens, UniProt P05181); conditions: bti-tn-5b1-4; further: in other assays of this panel Not Active means under 50% inhibition at 10 µM
Chain of Cytochrome P450 2E1 (P05181 whole entry): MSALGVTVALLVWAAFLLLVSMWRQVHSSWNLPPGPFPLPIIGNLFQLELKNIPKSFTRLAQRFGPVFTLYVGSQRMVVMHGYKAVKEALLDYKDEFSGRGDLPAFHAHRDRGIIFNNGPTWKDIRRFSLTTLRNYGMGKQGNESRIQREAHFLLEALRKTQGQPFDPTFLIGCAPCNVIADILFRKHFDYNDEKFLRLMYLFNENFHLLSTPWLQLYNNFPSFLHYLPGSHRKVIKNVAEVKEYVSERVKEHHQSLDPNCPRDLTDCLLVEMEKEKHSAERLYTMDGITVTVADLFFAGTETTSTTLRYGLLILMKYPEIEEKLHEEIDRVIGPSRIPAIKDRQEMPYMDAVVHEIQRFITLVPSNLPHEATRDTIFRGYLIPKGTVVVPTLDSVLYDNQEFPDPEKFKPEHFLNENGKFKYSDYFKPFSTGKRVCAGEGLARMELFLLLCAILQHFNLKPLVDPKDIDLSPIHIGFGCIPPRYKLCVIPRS

| Molecule | IC50 [1] | IC50 ([2]; hek293) | IC50 ([3]; cho-k1) | IC50 [4] | IC50 [5] | Ki [5] | IC50 [6] | Ki [6] | IC50 ([1]; read-out: IC50) | Ki ([1]; read-out: Ki) | IC50 ([2]; read-out: IC50) | Ki ([2]; read-out: Ki) | IC50 ([4]; read-out: IC50) | Ki [3] | IC50 ([3]; read-out: IC50) | Ki [1] | Ki ([2]; hek293) | Ki [4] |
| --- | --- | --- | --- | --- | --- | --- | --- | --- | --- | --- | --- | --- | --- | --- | --- | --- | --- | --- |
| COc1cc(N)nc2[nH]c(-c3ccc(F)cc3)c(-c3ccncc3)c12 | Not Active | Not Active | Not Active | Not Active | Not Active | Not Active | Not Active | Not Active |  |  |  |  |  |  |  |  |  |  |
| CNS(=O)(=O)Cc1ccc2[nH]cc(CCN(C)C)c2c1 | Not Active | Not Active | Not Active | Not Active | Not Active | Not Active | Not Active | Not Active |  |  |  |  |  |  |  |  |  |  |
| CCCc1nn(C)c2c(=O)[nH]c(-c3cc(S(=O)(=O)N4CCN(C)CC4)ccc3OCC)nc12 |  | Not Active | Not Active | Not Active | Not Active | Not Active | Not Active | Not Active | 1460 nM | 806 nM |  |  |  |  |  |  |  |  |
| COc1ccc(/C=C/C(=O)Nc2ccccc2C(=O)O)cc1OC | Not Active | Not Active | Not Active | Not Active | Not Active | Not Active | Not Active | Not Active |  |  |  |  |  |  |  |  |  |  |
| CCOC(N)=O | Not Active | Not Active | Not Active | Not Active | Not Active | Not Active | Not Active | Not Active |  |  |  |  |  |  |  |  |  |  |
| CC(=O)Nc1nnc(S(N)(=O)=O)s1 [ACETAZOLAMIDE] |  | Not Active | Not Active | Not Active | Not Active | Not Active | Not Active | Not Active |  |  |  |  |  |  |  |  |  |  |
| O=c1[nH]c2ccccc2n1CCCN1CCC(n2c(=O)[nH]c3cc(Cl)ccc32)CC1 [DOMPERIDONE] |  |  |  | Not Active |  |  |  |  |  |  | 1060 nM | 524 nM |  |  |  |  |  |  |
| CC1=C(CC(=O)O)c2cc(F)ccc2/C1=C\c1ccc(S(C)(=O)=O)cc1 [EXISULIND] | Not Active | Not Active | Not Active |  | Not Active | Not Active | Not Active | Not Active |  |  |  |  | 13800 nM |  |  |  |  |  |
| CC(C)OC(=O)C(C)(C)Oc1ccc(C(=O)c2ccc(Cl)cc2)cc1 [FENOFIBRATE] |  | Not Active | Not Active | Not Active | Not Active | Not Active | Not Active | Not Active |  |  |  |  |  |  |  |  |  |  |
| OCCN1CCN(CCCN2c3ccccc3Sc3ccc(C(F)(F)F)cc32)CC1 [FLUPHENAZINE] |  |  |  | Not Active |  |  | Not Active | Not Active |  |  | 33 nM | 16 nM |  | 8420 nM | 20700 nM |  |  |  |
| CN1C2CCCC1CC(NC(=O)c1nn(C)c3ccccc13)C2 (stereo not drawn) [GRANISETRON] |  | Not Active | Not Active | Not Active | Not Active | Not Active | Not Active | Not Active |  |  |  |  |  |  |  |  |  |  |
| Nc1nc2c(c(=O)[nH]1)N(C=O)C(CNc1ccc(C(=O)N[C@@H](CCC(=O)O)C(=O)O)cc1)CN2 (stereo partly drawn) [LEUCOVORIN] | Not Active | Not Active | Not Active |  | Not Active | Not Active | Not Active | Not Active |  |  |  |  |  |  |  |  |  |  |
| C[C@@H](O)[C@H]1C(=O)N2C(C(=O)O)=C(S[C@@H]3CN[C@H](C(=O)N(C)C)C3)[C@H](C)[C@H]12 [MEROPENEM] | Not Active | Not Active | Not Active | Not Active | Not Active | Not Active | Not Active | Not Active |  |  |  |  |  |  |  |  |  |  |
| CC[C@@H](CO)NC(=O)[C@@H]1C=C2c3cccc4c3c(cn4C)C[C@H]2N(C)C1 [METHYSERGIDE] |  | Not Active | Not Active | Not Active | Not Active | Not Active | Not Active | Not Active |  |  |  |  |  |  |  |  |  |  |
| CCN(CC)CC#CCOC(=O)C(O)(c1ccccc1)C1CCCCC1 (stereo not drawn) [OXYBUTYNIN] |  | Not Active | Not Active | Not Active |  |  | Not Active | Not Active |  |  |  |  |  |  |  |  |  |  |
| O=P(O)(O)C(O)(Cc1cccnc1)P(=O)(O)O [RISEDRONIC ACID] | Not Active | Not Active | Not Active | Not Active | Not Active | Not Active | Not Active | Not Active |  |  |  |  |  |  |  |  |  |  |
| CN(CCOc1ccc(CC2SC(=O)NC2=O)cc1)c1ccccn1 (stereo not drawn) [ROSIGLITAZONE] | Not Active | Not Active | Not Active | Not Active | Not Active | Not Active | Not Active | Not Active |  |  |  |  |  |  |  |  |  |  |
| C=C(C)[C@H]1Cc2c(ccc3c2O[C@@H]2COc4cc(OC)c(OC)cc4[C@@H]2C3=O)O1 [ROTENONE] | Not Active | Not Active |  | Not Active |  |  | Not Active | Not Active |  |  |  |  |  |  |  |  |  |  |
| C#CCN(C)[C@H](C)Cc1ccccc1 [SELEGILINE] | Not Active | Not Active | Not Active | Not Active |  |  | Not Active | Not Active |  |  |  |  |  |  |  |  |  |  |
| CO[C@H]1C[C@@H]2CC[C@@H](C)[C@@](O)(O2)C(=O)C(=O)N2CCCC[C@H]2C(=O)O[C@H]([C@H](C)C[C@@H]2CC[C@@H](O)[C@H](OC)C2)CC(=O)[C@H](C)/C=C(\C)[C@@H](O)[C@@H](OC)C(=O)[C@H](C)C[C@H](C)/C=C/C=C/C=C/1C [SIROLIMUS] | Not Active | Not Active | Not Active | Not Active |  |  | Not Active | Not Active |  |  |  |  |  |  |  |  |  |  |
| CN[C@@H]1[C@H](O)[C@H](NC)[C@H]2O[C@@]3(O)C(=O)C[C@@H](C)O[C@H]3O[C@@H]2[C@H]1O [SPECTINOMYCIN] | Not Active | Not Active | Not Active | Not Active |  |  | Not Active | Not Active |  |  |  |  |  |  |  |  |  |  |
| Nc1ccc(S(=O)(=O)Nc2ncccn2)cc1 [SULFADIAZINE] | Not Active | Not Active | Not Active | Not Active | Not Active | Not Active | Not Active | Not Active |  |  |  |  |  |  |  |  |  |  |
| COc1ncnc(NS(=O)(=O)c2ccc(N)cc2)c1OC [SULFADOXINE] | Not Active | Not Active | Not Active | Not Active | Not Active | Not Active | Not Active | Not Active |  |  |  |  |  |  |  |  |  |  |
| Nc1ccc(S(=O)(=O)Nc2nccs2)cc1 [SULFATHIAZOLE] | Not Active | Not Active | Not Active | Not Active | Not Active | Not Active | Not Active | Not Active |  |  |  |  |  |  |  |  |  |  |
| CCS(=O)(=O)CCn1c([N+](=O)[O-])cnc1C [TINIDAZOLE] | Not Active | Not Active | Not Active | Not Active |  |  |  |  |  |  |  |  |  |  |  |  |  |  |
| O=c1n(CCCN2CCN(c3cccc(Cl)c3)CC2)nc2ccccn12 [TRAZODONE] |  |  | Not Active | Not Active | Not Active | Not Active | Not Active | Not Active |  |  | 265 nM | 130 nM |  |  |  |  |  |  |
| O=C(O)C(Cl)(Cl)Cl [TRICHLOROACETIC ACID] | Not Active | Not Active |  | Not Active | Not Active | Not Active | Not Active | Not Active |  |  |  |  |  |  |  |  |  |  |
| COc1ccc(CN2CCNCC2)c(OC)c1OC [TRIMETAZIDINE] | Not Active | Not Active | Not Active | Not Active |  |  |  |  |  |  |  |  |  |  |  |  |  |  |
| STANNOUS FLUORIDE | Not Active | Not Active |  | Not Active | Not Active | Not Active | Not Active | Not Active |  |  |  |  |  |  |  | Not Active | Not Active | Not Active |
| THIMEROSAL | Not Active | Not Active |  | Not Active | Not Active | Not Active | Not Active | Not Active |  |  |  |  |  |  |  | Not Active | Not Active | Not Active |

Source: ChEMBL document CHEMBL1909046, “DrugMatrix in vitro pharmacology data”
